Measurements taken from patent US20130059879A1, “Small Molecule Inhibitors of PFKFB3 and Glycolytic Flux and Their Methods of Use as Anti-Cancer Therapeutics” (UNIVERSITY OF LOUISVILLE RESEARCH FOUNDATION, INC., priority 2010, published 2013).
Counter-ions that a name gives are not always drawn.

Test system: not listed separately
Assay: Microsomal stability in human liver microsomes
Format: in vitro ADME
Conditions: 0 min
Protocol: Microsomal stability in vitro in different biologic media (liver microsomes, S9 fraction, hepatocytes) and species is ascertained to evaluate the rate at which a compound undergoes metabolism in the experimental in vitro conditions. Results for some compounds of the invention after a 60 minutes incubation period in human liver microsomes are shown in the Table 6 below. […] Experimental conditions are briefly described here: the stability in human liver microsomes of several compounds was done over […] at 37° C. using pooled mixed gender human liver microsomes. These liver microsomes were prepared at 1.0 mg/ml of microsomal protein in a 100 mM potassium phosphate pH 7.4 buffer with 1 mM NADPH. The media was incubated at 37° C. with the compound in solution in DMSO. The concentration of the compound was followed by LC/MS-MS as a function of time. Samples were assayed at t=0, 15, 30, and 60 minutes. Testosterone was used as a positive control. The same experiment was performed with mouse, rat or dog liver microsomes instead of human liver microsomes.

Row | Structure (SMILES) | HLM, Mean metabolized (%)
1 | COc1ccc(C(=O)c2cc3c(ccc4ccccc43)[nH]2)cc1 [ACT-PFK-093, (3H-Benzo[e]indol-2-yl)-(4-methoxy-phenyl)-methanone] | 0.0
2 | O=C(c1ccnc(Cl)c1)c1cc2c(ccc3ccccc32)[nH]1 [ACT-PFK-105, (3H-benzo[e]indol-2-yl)-(2-chloro-pyridin-4-yl)-methanone] | 0.0
3 | COc1cc(C(=O)c2cc3c(ccc4ccccc43)[nH]2)ccn1 [ACT-PFK-115, (3H-Benzo[e]indol-2-yl)-(2-methoxy-pyridin-4-yl)-methanone] | 0.0

The next lines start with the values.

Row | HLM, Mean metabolized (%) | Structure (SMILES)
4 | 0.0 | O=C(c1ccccc1)c1cc2c(cc(F)c3ccccc32)[nH]1 [ACT-PFK-104, (5-Fluoro-3H-benzo[e]indol-2-yl)-phenyl-methanone]
5 | 0.0 | O=C(c1ccccc1)c1cc2c3c(ccc2[nH]1)CCCC3 [ACT-PFK-107, Phenyl-(6,7,8,9-tetrahydro-3H-benzo[e]indol-2-yl)-methanone]

Same assay, conditions: 60 min incubation, 1.0 mg/ml microsomal protein, 1 mM NADPH, 37° C.

Row | Structure (SMILES) | HLM, Mean metabolized (%)
6 | COc1ccc(C(=O)c2cc3c(ccc4ccccc43)[nH]2)cc1 [ACT-PFK-093, (3H-Benzo[e]indol-2-yl)-(4-methoxy-phenyl)-methanone] | 95
7 | O=C(c1ccnc(Cl)c1)c1cc2c(ccc3ccccc32)[nH]1 [ACT-PFK-105, (3H-benzo[e]indol-2-yl)-(2-chloro-pyridin-4-yl)-methanone] | 51.4
8 | COc1cc(C(=O)c2cc3c(ccc4ccccc43)[nH]2)ccn1 [ACT-PFK-115, (3H-Benzo[e]indol-2-yl)-(2-methoxy-pyridin-4-yl)-methanone] | 99.6

The remaining lines, values ahead:

Row | HLM, Mean metabolized (%) | Structure (SMILES)
9 | 80 | O=C(c1ccccc1)c1cc2c(cc(F)c3ccccc32)[nH]1 [ACT-PFK-104, (5-Fluoro-3H-benzo[e]indol-2-yl)-phenyl-methanone]
10 | 100.0 | O=C(c1ccccc1)c1cc2c3c(ccc2[nH]1)CCCC3 [ACT-PFK-107, Phenyl-(6,7,8,9-tetrahydro-3H-benzo[e]indol-2-yl)-methanone]

Test system: HCT-116
Assay: Cancer cell proliferation, Alamar Blue assay, 72 hours
Format: cell-based
Conditions: not given
Protocol: (§1) The ability of the compounds described herein to kill or inhibit the proliferation of cancer cells was measured using either the MTT assay, or the Alamar Blue assay, or the Cell Titer Glow® assay using 48 or 72 hours exposure. […] The procedures are briefly described below. Cells of the desired tumor cell line were plated at 2×10^5 cells/ml in 96 well plates. Twice the indicated concentrations of the compounds of the invention were added to cells the following day in an equal volume of media. 72 hours later, cells were lysed and subjected to ATP determination using the CellTiter Glo-Luminescent Cell Viability Assay kit (Promega, Madison, Wis.). Experiments were done in triplicate. When using the MTT assay or the Alamar blue assay, the experimental conditions are essentially similar; at the end of the incubation period, 20 microliters of the MTT solution is added per well and the samples are incubated for an additional four hours, rinsed, and the absorbance at 570 nm measured. […] Table 2 lists the IC50 values for the compounds of the invention in several cell lines including Jurkat, Calu-6, NCI-H82, U937, HCT-116, and MDA-MB-231 cancer cell lines.

Row | IC50 [nM] | Structure (SMILES)
11 | 850 | O=C(c1ccncc1)c1cc2c(ccc3ccccc32)[nH]1 [ACT-PFK-095HCl, HCl salt of (3H-Benzo[e]indol-2-yl)-pyridin-4-yl-methanone]

Same assay, conditions: Homo sapiens, HCT-116

Row | Structure (SMILES) | IC50 [nM]
12 | O=C(c1ccnc(Cl)c1)c1cc2c(ccc3ccccc32)[nH]1 [ACT-PFK-105, (3H-benzo[e]indol-2-yl)-(2-chloro-pyridin-4-yl)-methanone] | 355
13 | COc1cc(C(=O)c2cc3c(ccc4ccccc43)[nH]2)ccn1 [ACT-PFK-115, (3H-Benzo[e]indol-2-yl)-(2-methoxy-pyridin-4-yl)-methanone] | 8200

Further lines, results first:

Row | IC50 [nM] | Structure (SMILES)
14 | 320 | O=C(c1ccccc1)c1cc2c(cc(F)c3ccccc32)[nH]1 [ACT-PFK-104, (5-Fluoro-3H-benzo[e]indol-2-yl)-phenyl-methanone]
15 | > 100000 | O=C(c1ccccc1)c1cc2c3c(ccc2[nH]1)CCCC3 [ACT-PFK-107, Phenyl-(6,7,8,9-tetrahydro-3H-benzo[e]indol-2-yl)-methanone]

Test system: NCI-H82
Assay: as above
Format: cell-based
Conditions: Homo sapiens, NCI-H82, read-out: IC50 NCl-H82
Protocol: as §1

Row | Structure (SMILES) | IC50 [nM]
16 | O=C(c1ccnc(Cl)c1)c1cc2c(ccc3ccccc32)[nH]1 [ACT-PFK-105, (3H-benzo[e]indol-2-yl)-(2-chloro-pyridin-4-yl)-methanone] | 395
17 | COc1cc(C(=O)c2cc3c(ccc4ccccc43)[nH]2)ccn1 [ACT-PFK-115, (3H-Benzo[e]indol-2-yl)-(2-methoxy-pyridin-4-yl)-methanone] | 6050

Further lines, results first:

Row | IC50 [nM] | Structure (SMILES)
18 | 310 | O=C(c1ccccc1)c1cc2c(cc(F)c3ccccc32)[nH]1 [ACT-PFK-104, (5-Fluoro-3H-benzo[e]indol-2-yl)-phenyl-methanone]
19 | 10100 | O=C(c1ccccc1)c1cc2c3c(ccc2[nH]1)CCCC3 [ACT-PFK-107, Phenyl-(6,7,8,9-tetrahydro-3H-benzo[e]indol-2-yl)-methanone]

Same assay, conditions: read-out: IC50 NCl-H82

Row | IC50 [nM] | Structure (SMILES)
20 | 305 | O=C(c1ccncc1)c1cc2c(ccc3ccccc32)[nH]1 [ACT-PFK-095HCl, HCl salt of (3H-Benzo[e]indol-2-yl)-pyridin-4-yl-methanone]

Test system: MDA-MB-231
Assay: as above
Format: cell-based
Conditions: Homo sapiens
Protocol: as §1

Row | Structure (SMILES) | IC50 [nM]
21 | O=C(c1ccnc(Cl)c1)c1cc2c(ccc3ccccc32)[nH]1 [ACT-PFK-105, (3H-benzo[e]indol-2-yl)-(2-chloro-pyridin-4-yl)-methanone] | 7400
22 | COc1cc(C(=O)c2cc3c(ccc4ccccc43)[nH]2)ccn1 [ACT-PFK-115, (3H-Benzo[e]indol-2-yl)-(2-methoxy-pyridin-4-yl)-methanone] | 620

Next, values leading:

Row | IC50 [nM] | Structure (SMILES)
23 | 5950 | O=C(c1ccccc1)c1cc2c(cc(F)c3ccccc32)[nH]1 [ACT-PFK-104, (5-Fluoro-3H-benzo[e]indol-2-yl)-phenyl-methanone]
24 | 11600 | O=C(c1ccccc1)c1cc2c3c(ccc2[nH]1)CCCC3 [ACT-PFK-107, Phenyl-(6,7,8,9-tetrahydro-3H-benzo[e]indol-2-yl)-methanone]

Test system: Jurkat
Assay: as above
Format: cell-based
Conditions: not given
Protocol: as §1

Row | IC50 [nM] | Structure (SMILES)
25 | 440 | O=C(c1ccncc1)c1cc2c(ccc3ccccc32)[nH]1 [ACT-PFK-095HCl, HCl salt of (3H-Benzo[e]indol-2-yl)-pyridin-4-yl-methanone]

Same assay, conditions: Homo sapiens, Jurkat

Row | Structure (SMILES) | IC50 [nM]
26 | O=C(c1ccnc(Cl)c1)c1cc2c(ccc3ccccc32)[nH]1 [ACT-PFK-105, (3H-benzo[e]indol-2-yl)-(2-chloro-pyridin-4-yl)-methanone] | 115
27 | COc1cc(C(=O)c2cc3c(ccc4ccccc43)[nH]2)ccn1 [ACT-PFK-115, (3H-Benzo[e]indol-2-yl)-(2-methoxy-pyridin-4-yl)-methanone] | 4550

Other lines, results leading:

Row | IC50 [nM] | Structure (SMILES)
28 | 118 | O=C(c1ccccc1)c1cc2c(cc(F)c3ccccc32)[nH]1 [ACT-PFK-104, (5-Fluoro-3H-benzo[e]indol-2-yl)-phenyl-methanone]
29 | 6900 | O=C(c1ccccc1)c1cc2c3c(ccc2[nH]1)CCCC3 [ACT-PFK-107, Phenyl-(6,7,8,9-tetrahydro-3H-benzo[e]indol-2-yl)-methanone]

Test system: U937
Assay: as above
Format: cell-based
Conditions: not given
Protocol: as §1

Row | IC50 [nM] | Structure (SMILES)
30 | 20 | O=C(c1ccncc1)c1cc2c(ccc3ccccc32)[nH]1 [ACT-PFK-095HCl, HCl salt of (3H-Benzo[e]indol-2-yl)-pyridin-4-yl-methanone]

Same assay, conditions: Homo sapiens, U-937

Row | IC50 [nM] | Structure (SMILES)
31 | 70 | O=C(c1ccnc(Cl)c1)c1cc2c(ccc3ccccc32)[nH]1 [ACT-PFK-105, (3H-benzo[e]indol-2-yl)-(2-chloro-pyridin-4-yl)-methanone]
32 | 2850 | O=C(c1ccccc1)c1cc2c3c(ccc2[nH]1)CCCC3 [ACT-PFK-107, Phenyl-(6,7,8,9-tetrahydro-3H-benzo[e]indol-2-yl)-methanone]
33 | 1070 | COc1cc(C(=O)c2cc3c(ccc4ccccc43)[nH]2)ccn1 [ACT-PFK-115, (3H-Benzo[e]indol-2-yl)-(2-methoxy-pyridin-4-yl)-methanone]

Test system: Calu-6
Assay: as above
Format: cell-based
Conditions: not given
Protocol: as §1

Row | IC50 [nM] | Structure (SMILES)
34 | 390 | O=C(c1ccncc1)c1cc2c(ccc3ccccc32)[nH]1 [ACT-PFK-095HCl, HCl salt of (3H-Benzo[e]indol-2-yl)-pyridin-4-yl-methanone]

Same assay, conditions: Homo sapiens, Calu-6

Row | Structure (SMILES) | IC50 [nM]
35 | O=C(c1ccnc(Cl)c1)c1cc2c(ccc3ccccc32)[nH]1 [ACT-PFK-105, (3H-benzo[e]indol-2-yl)-(2-chloro-pyridin-4-yl)-methanone] | 140
36 | COc1cc(C(=O)c2cc3c(ccc4ccccc43)[nH]2)ccn1 [ACT-PFK-115, (3H-Benzo[e]indol-2-yl)-(2-methoxy-pyridin-4-yl)-methanone] | 2180

The next lines start with the values.

Row | IC50 [nM] | Structure (SMILES)
37 | 200 | O=C(c1ccccc1)c1cc2c(cc(F)c3ccccc32)[nH]1 [ACT-PFK-104, (5-Fluoro-3H-benzo[e]indol-2-yl)-phenyl-methanone]
38 | 7250 | O=C(c1ccccc1)c1cc2c3c(ccc2[nH]1)CCCC3 [ACT-PFK-107, Phenyl-(6,7,8,9-tetrahydro-3H-benzo[e]indol-2-yl)-methanone]
